According to PubChem BioAssay AID1259407 (Chemical Carcinogenesis Research Information System (CCRIS), 2018):
Activity calls are given as the source filed them. The rule behind the calls is not given here.

Tested on: CCRIS mutagenicity, Ames/micronucleus/aberration tests
Test: CCRIS mutagenicity studies
[1] = Test System: AMES SALMONELLA TYPHIMURIUM, Strain/Indicator: TA97, Metabolic Activation: NONE, Method: STANDARD PLATE
[2] = Test System: AMES SALMONELLA TYPHIMURIUM, Strain/Indicator: TA97, Metabolic Activation: RAT, LIVER, S-9, AROCLOR 1254, Method: STANDARD PLATE
[3] = Test System: AMES SALMONELLA TYPHIMURIUM, Strain/Indicator: TA98, Metabolic Activation: NONE, Method: STANDARD PLATE
[4] = Test System: AMES SALMONELLA TYPHIMURIUM, Strain/Indicator: TA98, Metabolic Activation: RAT, LIVER, S-9, AROCLOR 1254, Method: STANDARD PLATE
[5] = Test System: AMES SALMONELLA TYPHIMURIUM, Strain/Indicator: TA100, Metabolic Activation: NONE, Method: PREINCUBATION
[6] = Test System: AMES SALMONELLA TYPHIMURIUM, Strain/Indicator: TA100, Metabolic Activation: NONE, Method: STANDARD PLATE
[7] = Test System: AMES SALMONELLA TYPHIMURIUM, Strain/Indicator: TA100, Metabolic Activation: RAT, LIVER, S-9, AROCLOR 1254, Method: STANDARD PLATE
[8] = Test System: AMES SALMONELLA TYPHIMURIUM, Strain/Indicator: TA102, Metabolic Activation: NONE, Method: STANDARD PLATE

## Cc1ccc(S(=O)(=O)NN)cc1
End Point: IN VITRO CHROMOSOMAL ABERRATIONS, Test System: CHL CELLS, Metabolic Activation: RAT, LIVER, S-9, SODIUM PHENOBARBITAL AND 5,6-BENZOFLAVONE
  mutagenic call: active; positive (structural changes)
[1]
  mutagenic call: inactive; negative
[2]
  mutagenic call: inactive; negative
Test System: AMES SALMONELLA TYPHIMURIUM, Strain/Indicator: TA98, Metabolic Activation: HAMSTER, LIVER, S-9, AROCLOR 1254, Method: STANDARD PLATE
  mutagenic call: inactive; negative
Test System: AMES SALMONELLA TYPHIMURIUM, Strain/Indicator: TA98, Metabolic Activation: NONE, Method: PREINCUBATION
  mutagenic call: inactive; negative
[3]
  mutagenic call: inactive; negative
Test System: AMES SALMONELLA TYPHIMURIUM, Strain/Indicator: TA98, Metabolic Activation: RAT LIVER S-9, PHENOBARBITAL AND BETA-NAPHTHOFLAVONE, Method: PREINCUBATION
  mutagenic call: inactive; negative
[4]
  mutagenic call: inactive; negative
Test System: AMES SALMONELLA TYPHIMURIUM, Strain/Indicator: TA100, Metabolic Activation: HAMSTER, LIVER, S-9, AROCLOR 1254, Method: STANDARD PLATE
  mutagenic call: active; positive
[5]
  mutagenic call: active; positive
[6]
  mutagenic call: active; positive
Test System: AMES SALMONELLA TYPHIMURIUM, Strain/Indicator: TA100, Metabolic Activation: RAT LIVER S-9, PHENOBARBITAL AND BETA-NAPHTHOFLAVONE, Method: PREINCUBATION
  mutagenic call: active; positive
[7]
  mutagenic call: active; positive
[8]
  mutagenic call: inactive; negative
Test System: AMES SALMONELLA TYPHIMURIUM, Strain/Indicator: TA102, Metabolic Activation: RAT, LIVER, S-9, AROCLOR 1254, Method: STANDARD PLATE
  mutagenic call: inactive; negative
Test System: AMES SALMONELLA TYPHIMURIUM, Strain/Indicator: TA1535, Metabolic Activation: NONE, Method: PREINCUBATION
  mutagenic call: active; positive
Test System: AMES SALMONELLA TYPHIMURIUM, Strain/Indicator: TA1535, Metabolic Activation: RAT LIVER S-9, PHENOBARBITAL AND BETA-NAPHTHOFLAVONE, Method: PREINCUBATION
  mutagenic call: active; positive
Test System: AMES SALMONELLA TYPHIMURIUM, Strain/Indicator: TA1537, Metabolic Activation: NONE, Method: PREINCUBATION
  mutagenic call: inactive; negative
Test System: AMES SALMONELLA TYPHIMURIUM, Strain/Indicator: TA1537, Metabolic Activation: RAT LIVER S-9, PHENOBARBITAL AND BETA-NAPHTHOFLAVONE, Method: PREINCUBATION
  mutagenic call: inactive; negative
Test System: AMES SALMONELLA TYPHIMURIUM, Strain/Indicator: TA1538, Metabolic Activation: NONE, Method: PREINCUBATION
  mutagenic call: inactive; negative
Test System: AMES SALMONELLA TYPHIMURIUM, Strain/Indicator: TA1538, Metabolic Activation: RAT LIVER S-9, PHENOBARBITAL AND BETA-NAPHTHOFLAVONE, Method: PREINCUBATION
  mutagenic call: inactive; negative
Test System: E.COLI, Strain/Indicator: WP2UVRA, Metabolic Activation: NONE, Method: PREINCUBATION
  mutagenic call: active; positive
Test System: E.COLI, Strain/Indicator: WP2UVRA, Metabolic Activation: RAT LIVER S-9, PHENOBARBITAL AND BETA-NAPHTHOFLAVONE, Method: PREINCUBATION
  mutagenic call: active; positive
Test System: MOUSE LYMPHOMA, Strain/Indicator: L5178Y (TK+/TK-), Metabolic Activation: NONE, Method: SUSPENSION/PLATE
  mutagenic call: active; positive. reevaluation of results: positive
Test System: MOUSE LYMPHOMA, Strain/Indicator: L5178Y (TK+/TK-), Metabolic Activation: RAT, LIVER, S-9, AROCLOR 1254, Method: SUSPENSION/PLATE
  mutagenic call: active; positive. reevaluation of results: equivocal

## COC1=C(N)C(=O)c2nc(-c3nc(C(=O)O)c(C)c(-c4ccc(OC)c(OC)c4O)c3N)ccc2C1=O
[8]
  mutagenic call: active; positive
Test System: AMES SALMONELLA TYPHIMURIUM, Strain/Indicator: TA2638, Metabolic Activation: NONE, Method: STANDARD PLATE
  mutagenic call: active; positive
Test System: AMES SALMONELLA TYPHIMURIUM, Strain/Indicator: TA2638A, Metabolic Activation: NONE, Method: STANDARD PLATE
  mutagenic call: active; positive
Test System: E. COLI, Strain/Indicator: WP2 (PKM101), Metabolic Activation: NONE, Method: STANDARD PLATE
  mutagenic call: active; positive
Test System: E. COLI, Strain/Indicator: WP2 UVRA (PKM101), Metabolic Activation: NONE, Method: STANDARD PLATE
  mutagenic call: active; positive
Test System: UDS HUMAN FIBROBLASTS, Strain/Indicator: THY INCORP (NON-S-PHASE), Metabolic Activation: NONE, Method: AUTORADIOGRAPHY
  mutagenic call: active; positive

## ClC1OC1CBr (stereo not drawn)
[5]
  mutagenic call: active; positive

## Cn1cnc2c(N)ncnc21
[1]
  mutagenic call: inactive; negative
[2]
  mutagenic call: inactive; negative
[3]
  mutagenic call: inactive; negative
[4]
  mutagenic call: active; positive
[6]
  mutagenic call: inactive; negative
[7]
  mutagenic call: inactive; negative

## CC(CCl)OC(C)CCl (stereo not drawn)
End Point: IN VITRO CHROMOSOMAL ABERRATIONS, Test System: CHINESE HAMSTER OVARY CELLS, Metabolic Activation: NONE
  mutagenic call: inactive; negative; precipitation occurred at all doses
End Point: IN VITRO CHROMOSOMAL ABERRATIONS, Test System: CHINESE HAMSTER OVARY CELLS, Metabolic Activation: RAT, LIVER, S-9, AROCLOR 1254
  mutagenic call: active; positive; precipitation occurred at 497, 730 and 993 ug/ml

## CCON(OC(C)=O)C(=O)c1ccccc1
[3]
  mutagenic call: active; positive
[6]
  mutagenic call: active; positive
Test System: AMES SALMONELLA TYPHIMURIUM, Strain/Indicator: TA100, Metabolic Activation: RAT, S-9, AROCLOR, Method: STANDARD PLATE
  mutagenic call: active; positive
